Test results published in publication PMC12866179, “Oxidized MIF is an Alzheimer’s disease drug target relaying external risk factors to tau pathology” (Cell Reports Medicine, 2025).

Tests used:
[1] = test system: tau phosphorylation and aggregation; test: Treatment of tgTau58/2 mice, tau phosphorylation and sarkosyl-insoluble tau in brain; type: in vivo; details: tau58/2 mice
Text: TgTau58/2 mice[44] that express the human 0N4R tau isoform with the P301Smutation under control of the mouse Thy1.2 promoter were a kind gift from Novartis (Boston, USA). Experimental animals were two months old, male, and heterozygous for the transgene. Wildtype littermates on C57BL/6J background served as control. The mice were maintained in pathogen-free conditions in the Animal Facility at the University of Düsseldorf, Germany, fed ad libitum with standard laboratory chow and water in ventilated cages under a 12h light/dark cycle. All experiments were in conformity with the Animal Protection Law approved by local authorities (LANUV NRW, Recklinghausen, Germany).
TgTau58/2 mice[44] were a kind gift from Novartis (Boston, USA). Two months-old males, heterozygous for the tau-P301S transgene (n = 12 per group), were either treated with 10% DMSO or 5 mg/kg body weight compound PAV-617 for four weeks administering 100 μL volumes intraperitoneally three times a week, after which animals were perfused with PBS and terminated. The brains were extracted cut into two-halves and flash frozen in liquid N2. One brain halve was homogenized in cold extraction buffer (10 mM Tris pH7.4, 1mM EGTA, 0.8M NaCl, 10% sucrose, 1x Protease inhibitor cocktail, 1x phosphatase inhibitor cocktail 2) to 10%. For screening 1% NP40, 0.1mg/mL DNAseI and 5 mM MgSO4 were added to the homogenates and after 30 min incubation on ice the protein concentration was determined using the DC Protein Assay Kit (Bio-Rad). Equal amounts of protein were then either directly used for detection of tau in the whole homogenate by immunoblot or sarkosyl insoluble tau was precipitated following a protocol of.[93] 750 μg lysate were centrifuged at 6,000g for 20 min at 4°C. Then the supernatant was carefully taken and sarkosyl was added to 1% end concentration. After an incubation for 1h at RT the samples were spun down at 100,000g for 1h at 4°C. The supernatants were removed and the pellets carefully washed with 200 μL extraction buffer without sucrose. […]

[2] = test system: HSV-1; test: HSV-1 infection of differentiated LUHMES cells (immunocytochemistry, western blot); type: cell-based, HSV-1 KOS strain; details: infected with HSV-1
Protocol: 4x10^5 Vero cells, 8x10^5 SH-SY5Y or 2x10^6 differentiated LUHMES (differentiation day 6) cells were seeded into 12-well plates. After 24h the cells were treated with compounds (as indicated in the figures) and after 1h they were infected with HSV-1 applying MOIs as described in the figures. After 20h (or at indicated time points) cells were either washed twice with PBS, then lysed in cold PBS/1% NP40 including the cOmplete EDTA-free protease inhibitor cocktail (Roche) and phosphatase inhibitor cocktail (Sigma) or virus was released by freeze-thawing and ultrasonic treatment for analysis in viral plaque assay (see above). For immunocytochemistry analysis 5x10^4 LUHMES cells at differentiation day 2 were seeded on 13 mm coverslips that were coated with L-ornithine and fibronectin (see above) and placed into 24-well plates. After four additional days of differentiation the cells were infected with HSV-1 (MOI = 1). […] After the protein concentration of cell lysates and homogenates had been determined using the DC Protein Assay Kit (Bio-Rad), 20 μg of each sample were dissolved in NuPAGE LDS Sample buffer (including 2% β-mercaptoethanol), boiled at 100°C for 5 min and then separated on NuPAGE Novex 4–12% Bis-Tris midi gels (Invitrogen) using NuPAGE MES SDS Running buffer (Invitrogen). […] Signal intensities were calculated using the Image Studio Version 2.1 software (LI-COR Biosciences). […]

SMILES | phosphorylated tau (AT8) in brain homogenates ([1]; 5 mg/kg) | phosphorylated tau (PHF-1) in the sarkosyl-insoluble fraction ([1]; 5 mg/kg) | HT7-normalized phosphorylated tau (PHF-1) in brain homogenates ([1]; 5 mg/kg i.p. three times a week for four weeks) | viral antigens (HSV-1-gC) in differentiated LUHMES cells [2]
[I-].c1cc2nc3ccc(N4CCCC4)cc3[s+]c2cc1N1CCCC1 [PAV-617, 3,7-Di(pyrrolidine-1-yl)phenothiazine-5-ium iodide] | reduced | Significantly less | reduced | –
CCc1cc(N2CCCC2)cc2[s+]c3cc(N4CCCC4)cc(C)c3nc12.[I-] [PAV-174, 3,7-Di(pyrrolidine-1-yl) 1-ethyl-9-methyl-phenothiazin-5-ium iodide] | – | – | – | reduced
